Earlier results on one compound are cited in patent US20150191797A1, “SYSTEMS AND METHODS FOR DIAGNOSING A PREDISPOSITION TO COLON CANCER” (Institute for Cancer Research d/b/a The Research Institute …, priority 2012, published 2015).

This series relates to Werner cells. The following applies: camptothecin doses of 20-50 nM.

For `CC[C@@]1(O)C(=O)OCc2c1cc1n(c2=O)Cc2cc3ccccc3nc2-1` [Camptothecin, camptothecin], the “effect on cell cycle” value was “S phase delay” and the increase in apoptosis is recorded as 5-6 fold.
